The source of these data is patent publication US8168792B2, “Heterocyclic antiviral compounds” (Roche Palo Alto LLC, priority 2009, dated 2012).

One may read the IC50 as the concentration needed to halve the response being measured. One may read the melting point as the temperature, or range, at which the solid turns liquid.

For data set [1], the target named is T1, HCV polymerase (NS5B570n-Con1) (Hepatitis C virus genotype 1b, UniProt Q9WMX2).
T1 construct: contains a 21 amino acid deletion at the C-terminus relative to the full-length HCV polymerase; 6-histidine (N); made in house; host or cells: E. coli BL21(DE) pLysS, plasmid pET17b
Description: HCV NS5B RNA polymerase activity (incorporation of radiolabeled nucleotide into RNA). Format: biochemical, HCV Con1 strain. Here is the method:
The enzymatic activity of HCV polymerase (NS5B570n-Con1) was measured as the incorporation of radiolabeled nucleotide monophosphates into acid insoluble RNA products. Unincorporated radio labeled substrate was removed by filtration and scintillant was added to the washed and dried filter plate containing radio labeled RNA product. The amount of RNA product generated by NS5B570-Con1 at the end of the reaction was directly proportional to the amount of light emitted by the scintillant.
The N-terminal 6-histidine tagged HCV polymerase, derived from HCV Con1 strain, genotype 1b (NS5B570n-Con1) contains a 21 amino acid deletion at the C-terminus relative to the full-length HCV polymerase and was purified from E. coli strain BL21(DE) pLysS. The construct, containing the coding sequence of HCV NS5B Con1 (GenBank accession number AJ242654) was inserted into the plasmid construct pET17b, downstream of a T7 promoter expression cassette and transformed into E. coli. A single colony was grown overnight as a starter culture and later used inoculate 10 L of LB media supplemented with 100 μg/mL ampicillin at 37° C. Protein expression was induced by the addition of 0.25 mM isopropyl-β-D-thiogalactopyranoside (IPTG) when optical density at […] of the culture was between 0.6 and 0.8 and cells were harvested after 16 to 18 h at 30° C. NS5B570n-Con1 was purified to homogeneity using a three-step protocol including subsequent column chromatography on Ni-NTA, SP-Sepharose HP and Superdex 75 resins.
Each 50 μl enzymatic reaction contained 20 nM RNA template derived from the complementary sequence of the Internal Ribosome Entry Site (cIRES), 20 nM NS5B570n-Con1 enzyme, 0.5 μCi of tritiated UTP (Perkin Elmer catalog no. TRK-412; specific activity: 30 to 60 Ci/mmol; stock solution concentration from 7.5×10^-5 M to 20.6×10^-6 M), 1 μM each ATP, CTP, and GTP, 40 mM Tris-HCl pH 8.0, 40 mM NaCl, 4 mM DTT (dithiothreitol), 4 mM MgCl2, and 5 μl of compound serial diluted in DMSO. Reaction mixtures were assembled in 96-well filter plates (cat #MADVN0B, Millipore Co.) and incubated for 2 h at 30° C. Reactions were stopped by addition of 10% final (v/v) trichloroacetic acid and incubated for 40 min at 4° C. Reactions were filtered, washed with 8 reaction volumes of 10% (v/v) trichloroacetic acetic acid, 4 reaction volumes of 70% (v/v) ethanol, air dried, and 25 μl of scintillant (Microscint 20, Perkin-Elmer) was added to each reaction well.
The amount of light emitted from the scintillant was converted to counts per minute (CPM) on a Topcount® plate reader (Perkin-Elmer, Energy Range: Low, Efficiency Mode Normal, Count Time: 1 min, Background Subtract: none, Cross talk reduction: Off).
Data was analyzed in Excel® (Microsoft) and ActivityBase® (Idbs®). The reaction in the absence of enzyme was used to determine the background signal, which was subtracted from the enzymatic reactions. Positive control reactions were performed in the absence of compound, from which the background corrected activity was set as 100% polymerase activity. All data was expressed as a percentage of the positive control. The compound concentration at which the enzyme-catalyzed rate of RNA synthesis was reduced by 50% (IC50) was calculated by fitting
[formula] equation (i) to the data where “Y” corresponds to the relative enzyme activity (in %), “% Min” is the residual relative activity at saturating compound concentration, “% Max” is the relative maximum enzymatic activity, “X” corresponds to the compound concentration, and “S” is the Hill coefficient (or slope).

The nature of data set [2]: in vitro. Conditions: human.
In data set [3] the test system is HCV replicon (genotype 1b, cell line 2209-23). Kind of data set: HCV replicon assay (Renilla luciferase reporter). Format: cell-based, HCV genotype 1b. Conditions: Hepatitis C virus, 72 h; three days incubation, luciferase readout.
In data set [4] the test system is HCV. As to conditions: monotherapy / sole treatment; cited from earlier work.

The structures appear in SMILES notation.

For the compound `CC(C)(C)c1cc(-c2ccc[nH]c2=O)c2oc(=O)ccc2c1` [Compound I-1, 3-(6-tert-Butyl-2-oxo-2H-chromen-8-yl)-1H-pyridin-2-one], the melting point was more than 300 °C. In data set [1], this compound registered an IC50 of 1530 nM.

Regarding `CC(C)(C)c1cc(-c2ccc[nH]c2=O)c2[nH]c(=O)ccc2c1` [Compound I-2], the melting point is more than 300 °C. The IC50 in data set [1] stood at 332 nM.

The compound `CC(C)(C)c1cc(-c2ccc[nH]c2=O)c2oc(=O)c(-c3ccc(N)cc3)cc2c1` [Compound I-3] yielded a melting point of more than 300 °C. For the same compound, half-maximal inhibition in data set [1] (IC50) was put at 34 nM.

For the compound `CC(C)(C)c1cc(-c2ccc[nH]c2=O)c2[nH]c(=O)c(-c3ccccc3)cc2c1` [Compound I-4], the melting point is 200 to 202 °C. In data set [1], this compound came in with an IC50 of 91 nM.

The compound `CC(C)(C)c1cc(-c2ccc[nH]c2=O)c2oc(=O)c(-c3ccc(NS(C)(=O)=O)cc3)cc2c1` [Compound I-5, N-{4-[6-tert-Butyl-2-oxo-8-(2-oxo-1,2-dihydro-pyridin-3-yl)-2H-chromen-3-yl]-phenyl}-methanesulfonamide] returned a melting point of 225 to 227 °C. For the same compound, in data set [2], the CC50 at 3 days is 95100 nM. Further, it took 10 nM to reach half-maximal inhibition in data set [3] (IC50). The same compound gave a 50% inhibitory concentration (IC50) in data set [1] of 5 nM.

In turn, `Cn1c(=O)c(-c2ccccc2)cc2cc(C(C)(C)C)cc(-c3ccc[nH]c3=O)c21` [Compound I-6] yielded a melting point of 290 to 292 °C. Besides, the IC50 in data set [1] came out at 456 nM.

In the case of `Cn1c(=O)c(-c2ccc(O)cc2)cc2cc(C(C)(C)C)cc(-c3ccc[nH]c3=O)c21` [Compound I-7], the melting point is more than 300 °C. Half-maximal inhibition in data set [1] (IC50) was put at 900 nM.

Compound `Cn1c(=O)c(-c2ccc(NS(C)(=O)=O)cc2)cc2cc(C(C)(C)C)cc(-c3ccc[nH]c3=O)c21` [Compound I-8, N-{4-[6-tert-Butyl-1-methyl-2-oxo-8-(2-oxo-1,2-dihydro-pyridin-3-yl)-1,2-dihydro-quinolin-3-yl]-phenyl}-methanesulfonamide] returned a melting point of more than 300 °C. This compound also displayed a 50% inhibitory concentration (IC50) in data set [1] of 6 nM.

The compound `CC(C)(C)c1cc(-c2ccc[nH]c2=O)c2[nH]c(=O)c(-c3ccc(NS(C)(=O)=O)cc3)cc2c1` [Compound I-9] yielded a melting point of more than 300 °C. The compound further had a half-inhibitory concentration (IC50) in data set [1] of 5 nM.

`CC(C)(C)c1cc(-c2ccc[nH]c2=O)c2[nH]c(=O)c(-c3cccc(NS(C)(=O)=O)c3)cc2c1` [Compound I-10, N-{3-[6-tert-Butyl-2-oxo-8-(2-oxo-1,2-dihydro-pyridin-3-yl)-1,2-dihydro-quinolin-3-yl]-phenyl}-methanesulfonamide] registered a melting point of 233 to 235 °C. In data set [1], the IC50 was 531 nM.

As for `CC(C)(C)c1cc(-c2ccc[nH]c2=O)c2[nH]c(=O)c(-c3ccc(S(N)(=O)=O)cc3)cc2c1` [Compound I-11], the melting point is 250 to 252 °C. In data set [1], this compound returned an IC50 of 46 nM.

For the compound `Cn1c(=O)c(-c2ccc(S(N)(=O)=O)cc2)cc2cc(C(C)(C)C)cc(-c3ccc[nH]c3=O)c21` [Compound I-12], the melting point was more than 300 °C. The same compound returned an IC50 in data set [1] of 2370 nM.

For the compound `CC(C)(C)c1cc(-c2ccc[nH]c2=O)c2[nH]c(=O)c(-c3cccc(C(N)=O)c3)cc2c1` [Compound I-13], the melting point fell in the range of 255 to 257 °C. Moreover, the IC50 in data set [1] is 36 nM.

Take `CC(C)(C)c1cc(-c2ccc[nH]c2=O)c2c(=O)[nH]c(-c3ccc(NS(C)(=O)=O)cc3)cc2c1` [Compound I-14, N-{4-[6-tert-Butyl-1-oxo-8-(2-oxo-1,2-dihydro-pyridin-3-yl)-1,2-dihydro-isoquinolin-3-yl]-phenyl}-methanesulfonamide]: the melting point is more than 300 °C. The compound further had an IC50 in data set [1] of 16 nM.

Regarding `CC(C)(C)c1cc(-c2ccc[nH]c2=O)c2c(=O)oc(-c3ccc(NS(C)(=O)=O)cc3)cc2c1` [Compound I-15, N-{4-[6-tert-Butyl-1-oxo-8-(2-oxo-1,2-dihydro-pyridin-3-yl)-1H-isochromen-3-yl]-phenyl}methanesulfonamide], in data set [1], the IC50 was determined as 8 nM. That is a single-digit nanomolar value.

`CC(C)(C)c1cc2c(c(-c3ccc[nH]c3=O)c1)OC(O)C(c1ccc(NS(C)(=O)=O)cc1)C2` (stereo not shown) [Compound I-18, N-{4-[6-tert-Butyl-2-hydroxy-8-(2-oxo-1,2-dihydro-pyridin-3-yl)-chroman-3-yl]-phenyl}-methanesulfonamide]: the melting point was 228 to 230 °C. In data set [1], this compound returned an IC50 of 7 nM.

On to `NC(=O)c1ncn([C@@H]2O[C@H](CO)[C@@H](O)[C@H]2O)n1` [ribavirin, 1-((2R,3R,4S,5R)-3,4-Dihydroxy-5-hydroxymethyl-tetrahydro-furan-2-yl)-1H-[1,2,4]triazole-3-carboxylic acid amide], for which the “serum levels of HCV-RNA” value in data set [4] was “does not lower serum levels of HCV-RNA”.
